Source: US12594349B2, “Compositions and methods for the targeting of PCSK9” (Scribe Therapeutics Inc., priority 2022, dated 2026)

Tested on: human PCSK9 locus
Assay: Secreted PCSK9 by ELISA in Huh7 cells transfected with mRNA and gRNA
Format: cell-based
Settings: for Secreted PCSK9 / Percent reduction in PCSK9 secretion / Average percent reduction in PCSK9 secretion: Huh7 cells; for Secreted PCSK9: 6 days post-transfection, normalized to total cell count; for Percent reduction in PCSK9 secretion / Average percent reduction in PCSK9 secretion: LTRP5-ADD-ZIM3 mRNA; for Percent reduction in PCSK9 secretion: day 6, relative to non-targeting gRNA control; for Average percent reduction in PCSK9 secretion: day 6, averaged from the two doses
Experimental: To assess PCSK9 secretion, seeded Huh7 cells were transfected with mRNA encoding a catalytically-active CasX 676, dXR1, or LTRP5-ADD-ZIM3 and a gRNA with scaffold 316 and spacer targeting either the B2M or PCSK9 locus. Media supernatant was harvested at 6, 18, 36, and 87 days post-transfection to assess level of PCSK9 secretion by ELISA. Levels of PCSK9 secretion were normalized to total cell count. As an additional control, PCSK9 secretion was also measured in the media supernatant harvested from wells containing untreated, naïve cells.
The following three human hepatocyte cancer cell lines were used in this experiment: HepG2 cells, Hep3B cells, and Huh7 cells. ˜15,000 cells of each cell line were seeded per well; the next day, seeded cells were transfected with mRNA encoding a catalytically-active CasX 676, dXR1, or LTRP5-ADD-ZIM3 and a gRNA with scaffold 316 and spacer targeting either the B2M or PCSK9 locus (see Table 23 for specific spacers and sequences). Media supernatant was harvested at 4 days post-transfection to assess level of PCSK9 secretion by ELISA, and levels of PCSK9 secretion were normalized to total cell count and illustrated in FIGS. 11A-11C. Culturing of treated Huh7 cells continued, and media supernatant was harvested at 14 and 27 days post-transfection for measuring PCSK9 secretion by ELISA. As an additional experimental control, PCSK9 secretion was also measured in the media supernatant harvested from wells containing untreated, naïve cells.
To assess PCSK9 secretion, seeded Huh7 cells were co-transfected with mRNA encoding for LTRP5-ADD-ZIM3 and a gRNA with scaffold 316 and spacer targeting the PCSK9 locus using Lipofectamine™ 3000. Two doses of total RNA input at a 2:1 mass ratio of mRNA to gRNA were used for screening: 50 ng mRNA:25 ng gRNA and 25 ng mRNA:12.5 ng gRNA. Media supernatant was harvested at 6 days post-transfection to assess level of PCSK9 secretion by ELISA (Table 74). Levels of PCSK9 secretion were normalized to total cell count. As an additional control, PCSK9 secretion was also measured in the media supernatant harvested from cells transfected with mRNA encoding for mScarlet.

[1] = LTRP5-ADD-ZIM3 mRNA + gRNA scaffold 316, 25 ng mRNA:12.5 ng gRNA
[2] = LTRP5-ADD-ZIM3 mRNA + gRNA scaffold 316, 50 ng mRNA:25 ng gRNA

Substance | Secreted PCSK9 [1] [ng/mL] | Secreted PCSK9 [2] [ng/mL] | Percent reduction in PCSK9 secretion (25 ng mRNA:12.5 ng gRNA) [%] | Percent reduction in PCSK9 secretion (50 ng mRNA:25 ng gRNA) [%] | Average percent reduction in PCSK9 secretion [%] | secreted PCSK9 repression compared with spacer 6.1 paired with CasX 676 (Huh7, LTRP5-ADD-ZIM3 mRNA + gRNA scaffold 316, through day 36) | average reduction in secreted PCSK9 levels (Huh7, LTRP5-ADD-ZIM3 mRNA + gRNA scaffold 316 v1, 6 days post-transfection, averaged from two doses, relative to non-targeting gRNA) [%]
TG-06-135 (guide GGAAAGCUGAGCUUGUGCCU; listed as RNA, chemistry not given here) | 44.59 | 25.66 | 37.42 | 68.82 | 53.12 |  | 
TG-06-171 (guide CAGUACGUUCCAGGCAUUCA; listed as RNA, chemistry not given here) | 55.95 | 52.41 | 21.46 | 36.3 | 28.88 |  | 
TG-06-342 (guide AAUUACAGGCAACAGGAAGG; listed as RNA, chemistry not given here) |  |  | 5.6 |  |  |  | 
TG-06-161 (guide GCUCCUGCACAGUCCUCCCC; listed as RNA, chemistry not given here) | 53.16 | 29.55 | 25.38 | 64.08 | 44.73 |  | 
TG-06-344 (guide CAGUUUCUGCCUCGCCGCGG; listed as RNA, chemistry not given here) |  |  |  | 0.01 |  |  | 
TG-06-134 (guide GAAUUCUAUGGUAGGCACAA; listed as RNA, chemistry not given here) | 57.45 | 43.79 | 19.37 | 46.77 | 33.07 |  | 
TG-06-352 (guide UCCCUCACCAAUUACCCCUC; listed as RNA, chemistry not given here) |  |  |  |  |  | effective repression | 
TG-06-152 (guide GCCUCGCCCUCCCCAAACAG; listed as RNA, chemistry not given here) | 57.43 | 36.95 | 19.39 | 55.09 | 37.24 |  | 
TG-06-151 (guide CUCUGCGCGUAAUCUGACGC; listed as RNA, chemistry not given here) | 66.42 | 53.44 | 6.77 | 35.05 | 20.91 |  | 
TG-06-142 (guide UUCCACUGGCCUUAACCUGG; listed as RNA, chemistry not given here) | 27.27 | 30.87 | 61.73 | 62.48 | 62.1 |  | 
TG-06-117 (guide ACUUUGUUUGCAAAGACCUC; listed as RNA, chemistry not given here) | 98.05 | 68.98 | 37.62 | 16.16 | 10.73 |  | 
TG-06-120 (guide CUCGGAAUCUGCUGUGCAUC; listed as RNA, chemistry not given here) | 47.97 | 21.43 | 32.67 | 73.95 | 53.31 |  | 
TG-06-141 (guide ACUGGCCUUAACCUGGCAGC; listed as RNA, chemistry not given here) | 12.58 | 13.86 | 82.34 | 83.16 | 82.75 |  | 82.75
TG-06-155 (guide GCAGCGACGUCGAGGCGCUC; listed as RNA, chemistry not given here) | 56.36 | 29.45 | 20.89 | 64.21 | 42.55 |  | 
TG-06-132 (guide AGAAGAUUCAAUUUGCAAAG; listed as RNA, chemistry not given here) | 75.01 | 56.68 | 5.29 | 31.11 | 12.91 |  | 
TG-06-145 (guide UGGGUCCACCUUGUCUCCUG; listed as RNA, chemistry not given here) | 18.54 | 15.8 | 73.98 | 80.8 | 77.39 |  | 
TG-06-150 (guide UCCCUCUGCGCGUAAUCUGA; listed as RNA, chemistry not given here) | 39.59 | 18.33 | 44.42 | 77.73 | 61.08 |  | 
TG-06-160 (guide CGCGCCCUGCUCCUGAACUU; listed as RNA, chemistry not given here) | 48.67 | 20.63 | 31.69 | 74.93 | 53.31 |  | 
TG-06-004 (guide GCCAGGCCGUCCUCCUCGGA; listed as RNA, chemistry not given here) | 73.05 | 54.83 | 2.54 | 33.35 | 15.41 |  | 
TG-06-1046 (guide UCUCUUACAUGGGGGGAAAC; listed as RNA, chemistry not given here) |  |  |  | 4.1 |  |  | 
TG-06-124 (guide CAGUAUCGACAGCCCUUCCA; listed as RNA, chemistry not given here) | 30.59 | 16.54 | 57.06 | 79.9 | 68.48 |  | 
TG-06-127 (guide UCCUCCUGCCUGGUACACAA; listed as RNA, chemistry not given here) | 49.1 | 22.57 | 31.08 | 72.56 | 51.82 |  | 
TG-06-121 (guide GGAAGGGCUGUCGAUACUGG; listed as RNA, chemistry not given here) | 37.13 | 28.33 | 47.89 | 65.57 | 56.73 |  | 
TG-06-119 (guide GAGCAGGCCAUUUCACUCGG; listed as RNA, chemistry not given here) | 84.54 | 70.37 | 18.66 | 14.47 | 2.1 |  | 
